Reference: patent US20140329863A1 (priority 2011, published 2014)
Read-outs that look alike come from different tables or passages of the source. Marks after values point to notes of the source that are not given here.

How the values were obtained:
[1] = tested on: PrP^C in T98G cells; assay type: cell-based, human; conditions: read-out: EC50 (μM) ELISA potency, PrP^C in T98G cells
[2] = Hepatic microsomal stability, mouse; conditions: mouse liver microsomes; for Hepatic Extraction Ratio Mouse: predicted hepatic extraction; for half-life at 1 μM: mouse, pH 7.4
[3] = Hepatic microsomal stability, human; conditions: human liver microsomes; for Hepatic Extraction Ratio Human: predicted hepatic extraction; for half-life at 1 μM: human, pH 7.4
[4] = tested on: PrP^Sc in nondividing ScN2a-cl3 cells; assay type: cell-based, mouse
[5] = tested on: N2a-cl3 cells; assay: cells; conditions: Mus musculus
[6] = tested on: N2a-cl3 cells
[7] = tested on: PrP^Sc in dividing ScN2a-cl3 cells; assay type: cell-based, mouse; set-up: Dividing ELISA pEC50 (μM) 1st Expt. / Dividing ELISA pEC50 (μM) 2nd Expt. / Dividing ELISA pEC50 (μM) 3rd Expt. / Dividing ELISA pEC50 (μM) Mean: unit not given here
[8] = tested on: PrP^Sc in ScN2a-cl3 cells; assay type: cell-based, mouse; conditions: Western immunoblots
[9] = read-out: Non-Dividing ELISA EC50 (μM) Mean (n = 3), ScN2a-c13 non-dividing cells, mean n = 3
[10] = N2a-cl3, read-out: Dividing Calcein EC50 (μM) Mean (n = 3)
[11] = read-out: Dividing ELISA EC50 (μM) 1st Expt., ScN2a-cl3 dividing cells, 1st determination
[12] = read-out: Dividing ELISA EC50 (μM) 2nd Expt., ScN2a-cl3 dividing cells, 2nd determination
[13] = read-out: Dividing ELISA EC50 (μM) 3rd Expt., ScN2a-cl3 dividing cells, 3rd determination
[14] = read-out: Dividing ELISA EC50 (μM) Mean, ScN2a-cl3 dividing cells, mean of three determinations
[15] = ScN2a-cl3 dividing cells, 1st determination
[16] = ScN2a-cl3 dividing cells, 2nd determination
[17] = ScN2a-cl3 dividing cells, 3rd determination
[18] = ScN2a-cl3 dividing cells, mean of three determinations

For `COc1ccccc1C(=O)N1CCN(c2ccccc2OC)CC1` [IND116050], the EC50 [1] was 0.887 µM.

Work on `COc1ccc(Cl)cc1C(=O)N1CC(=O)Nc2ccccc21` [IND116063] yielded an EC50 [1] of 0.647 µM.

For `COc1ccc(S(=O)(=O)N2CCOc3ccccc32)cc1` [IND116071], the “Hepatic Extraction Ratio Mouse” value [2] was 0.98, the half-life at 1 μM [2] was 1.53 min and the “Hepatic Extraction Ratio Human” value [3] was 0.94. For the same compound, the half-life at 1 μM [3] was 4.53 min and the EC50 [1] was 1.71 µM.

For `Cc1c(C(=O)OC(C)C)[nH]c2c1C(=O)CC(c1cccs1)C2` (stereo not shown) [IND116088], the “Hepatic Extraction Ratio Mouse” value [2] was 0.90, the half-life at 1 μM [2] was 6.88 min and the “Hepatic Extraction Ratio Human” value [3] was 0.74. For the same compound, the half-life at 1 μM [3] was 23.9 min and the EC50 [1] was 0.303 µM.

Work on `Cc1nc2sccn2c1-c1csc(Nc2ccc(N(C)C)nc2)n1` [IND126306] yielded an EC50 [1] of 0.217 µM.

Work on `CCN(CC)c1ccc2c(c1)OC(N)=C(C#N)C2c1ccccc1` (stereo not shown) [IND126322] yielded an EC50 [1] of 0.174 µM.

With `CCOc1ccc(Nc2nc(-c3c(C)nc4sccn34)cs2)cc1` [IND126328] the “Hepatic Extraction Ratio Mouse” value [2] was 0.86, the half-life at 1 μM [2] was 9.64 min and the “Hepatic Extraction Ratio Human” value [3] was 0.76. The half-life at 1 μM [3] was 21.9 min and the EC50 [1] was 0.065 µM.

Work on `COc1ccc(Cl)cc1NS(=O)(=O)c1ccc(N2CCCC2=O)cc1` [IND126331] yielded an EC50 [1] of 0.684 µM.

For `COc1cccc(N2CCN(C(=O)c3cc(C)ccc3OC)CC2)c1` [IND126339], the “Hepatic Extraction Ratio Mouse” value [2] was 0.95, the half-life at 1 μM [2] was 3.2 min and the “Hepatic Extraction Ratio Human” value [3] was 0.87. The half-life at 1 μM [3] was 10.3 min and the EC50 [1] was 0.248 µM.

`CCOC(=O)c1[nH]c2c(c1C)C(=O)CC(c1ccccc1Cl)C2` (stereo not shown) [IND126429] gave an EC50 [1] of 0.497 µM.

Work on `CCOC(=O)c1[nH]c2c(c1C)C(=O)CC(c1ccccc1)C2` (stereo not shown) [IND126432] yielded an EC50 [1] of 0.144 µM.

With `Cc1ccc2[nH]c3c(c2c1)CCCC3NCCCN(C)C` (stereo not shown) [IND-23308] the HTS % inhibition ([4]; HTS, nondividing cells) was 70%, the “Inhibition of Baseline PrP^5c (%) Non-dividing Cells ELISA” value ([4]; SPC assay, nondividing cells) was 94^d % and the SPC % inhibition ([4]; SPC assays, nondividing cells) was 94%. It also gave an EC50 ([4]; read-out: EC50, PrP^Sc ELISA in stationary-phase (nondividing) cells) of 7.5 µM, an EC50 ([5]; N2a-cl3, read-out: potency in cell viability, dividing cells) of over 10 µM and an EC50 ([5]; N2a-cl3, read-out: potency in cell viability, stationary-phase cells) of over 10 µM. For the same compound, the “Dividing Cells V (cell viability percentages)” value [6] was 30%, the “Effect on cell viability (EC50)” value [6] was “no effect on cell viability” and the “Non-dividing Cells V (cell viability percentages)” value [6] was 12%. For the same compound, the “Inhibition of Baseline PrP^5c (%) Dividing Cells ELISA” value ([7]; SPC assay, dividing cells) was 88% and the EC50 ([7]; read-out: EC50, PrP^Sc ELISA in dividing ScN2a-c13 cells) was 1580 nM.

With `OCCNCc1cc(Br)ccc1OCc1ccc(Cl)cc1Cl` [IND-0033452] the EC50 ([8]; ScN2a-cl3 cells, read-out: EC50 (nM): Western) was 1990 nM, the EC50 ([8]; read-out: Potency (nM) Western (EC50), dividing ScN2a-cl3 cells) was 1990 nM and the Calcein [6] was “MW: 405.1 EC50 (nM): ELISA: 2850 Calcein: 27% Western: 1993”. For the same compound, the “Calcein (value printed in %)” value ([6]; mouse) was 27%, the EC50 ([7]; dividing ScN2a-cl3 cells, read-out: EC50 (nM): ELISA) was 2850 nM and the EC50 ([7]; read-out: Potency (nM) ELISA (EC50), PrP^Sc ELISA, dividing ScN2a-cl3 cells) was 2850 nM.

Work on `COc1ccc(-c2csc(Nc3ccc(C)cn3)n2)cc1OC` [compound 14, [4-(3,4-dimethoxyphenyl)-thiazol-2-yl]-(5-methylpyridin-2-yl)-amine] yielded an EC50 [4, 9] of over 32 µM, an EC50 [5, 10] of over 32 µM and an EC50 [7, 11] of 974 nM. For the same compound, the EC50 [7, 12] was 577 nM, the EC50 [7, 13] was 815 nM and the EC50 [7, 14] was 789 nM.

In the case of `c1ccc2cc(Nc3nc(-c4ccncc4)cs3)ncc2c1` [compound 32], the EC50 [4, 9] is reported as over 32 µM, the EC50 ([6]; read-out: Dividing Calcein EC50 (μM) Mean (n = 3)) is reported as over 32 µM and the “Dividing ELISA pEC50 (μM) 1st Expt.” value [7, 15] is reported as 6.58. For the same compound, the EC50 ([7]; ScN2a-cl3 dividing cells, 1st determination, read-out: Dividing ELISA EC50 (μM) 1st Expt.) was 261 nM, the “Dividing ELISA pEC50 (μM) 2nd Expt.” value [7, 16] was 6.56 and the EC50 ([7]; ScN2a-cl3 dividing cells, 2nd determination, read-out: Dividing ELISA EC50 (μM) 2nd Expt.) was 277 nM. For the same compound, the “Dividing ELISA pEC50 (μM) 3rd Expt.” value [7, 17] was 6.42, the EC50 ([7]; ScN2a-cl3 dividing cells, 3rd determination, read-out: Dividing ELISA EC50 (μM) 3rd Expt.) was 383 nM and the “Dividing ELISA pEC50 (μM) Mean” value [7, 18] was 6.52. The EC50 ([7]; ScN2a-cl3 dividing cells, mean of three determinations, read-out: Dividing ELISA EC50 (μM) Mean) was 307 nM.

For `c1ccc(-c2cc(-c3csc(Nc4cc5ccccc5cn4)n3)on2)cc1` [compound 35, Isoquinolin-3-yl-[4-(3-phenylisoxazol-5-yl)-thiazol-2-yl]-amine], the EC50 [4, 9] was over 32 µM, the EC50 [5, 10] was over 32 µM and the “Dividing ELISA pEC50 (μM) 1st Expt.” value [7, 15] was 5.93. The “Dividing ELISA pEC50 (μM) 2nd Expt.” value [7, 16] was 6.24, the “Dividing ELISA pEC50 (μM) 3rd Expt.” value [7, 17] was 6.18 and the “Dividing ELISA pEC50 (μM) Mean” value [7, 18] was 6.12. For the same compound, the EC50 [7, 11] was 1160 nM, the EC50 [7, 12] was 573 nM and the EC50 [7, 13] was 663 nM. For the same compound, the EC50 [7, 14] was 799 nM.

With `Cc1ccc(Nc2nc3c(s2)Cc2ccccc2-3)nc1` [compound 38, (8H-Indeno[1,2-d]thiazol-2-yl)-(5-methylpyridin-2-yl)-amine] the EC50 [4, 9] was over 32 µM, the EC50 [5, 10] was over 32 µM and the “Dividing ELISA pEC50 (μM) 1st Expt.” value [7, 15] was 5.70. The “Dividing ELISA pEC50 (μM) 2nd Expt.” value [7, 16] was 5.52, the “Dividing ELISA pEC50 (μM) 3rd Expt.” value [7, 17] was 5.63 and the “Dividing ELISA pEC50 (μM) Mean” value [7, 18] was 5.62. The EC50 [7, 11] was 1990 nM, the EC50 [7, 12] was 2990 nM and the EC50 [7, 13] was 2340 nM. It also gave an EC50 [7, 14] of 2440 nM.

In the case of `COc1cc2c(cc1OC)-c1nc(Nc3ccc(C)cn3)sc1C2` [compound 39, (5,6-Dimethoxy-8H-indeno-[1,2-d]thiazol-2-yl)-(5-methylpyridin-2-yl)-amine], the EC50 [4, 9] is reported as over 32 µM, the EC50 [5, 10] is reported as over 32 µM and the “Dividing ELISA pEC50 (μM) 1st Expt.” value [7, 15] is reported as 5.46. The “Dividing ELISA pEC50 (μM) 2nd Expt.” value [7, 16] was 5.23, the “Dividing ELISA pEC50 (μM) 3rd Expt.” value [7, 17] was 5.13 and the “Dividing ELISA pEC50 (μM) Mean” value [7, 18] was 5.27. It also gave an EC50 [7, 11] of 3450 nM, an EC50 [7, 12] of 5930 nM and an EC50 [7, 13] of 7380 nM. For the same compound, the EC50 [7, 14] was 5590 nM.

With `Cc1ccnc(Nc2nc(-c3cc(-c4ccccc4)no3)cs2)c1` [compound 43, (4-Methylpyridin-2-yl)-[4-(3-phenylisoxazol-5-yl)-thiazol-2-yl]-amine] the EC50 [4, 9] was over 32 µM, the EC50 [5, 10] was over 32 µM and the “Dividing ELISA pEC50 (μM) 1st Expt.” value [7, 15] was 5.98. For the same compound, the “Dividing ELISA pEC50 (μM) 2nd Expt.” value [7, 16] was 5.96, the “Dividing ELISA pEC50 (μM) 3rd Expt.” value [7, 17] was 5.78 and the “Dividing ELISA pEC50 (μM) Mean” value [7, 18] was 5.90. For the same compound, the EC50 [7, 11] was 1050 nM, the EC50 [7, 12] was 1100 nM and the EC50 [7, 13] was 1670 nM. The EC50 [7, 14] was 1280 nM.
